Assay results reported in patent US6006753A, “Use of GLP-1 or analogs to abolish catabolic changes after surgery” (Eli Lilly and Company, priority 1997, dated 1999).

Experiments:
[1] = Blood glucose in NIDDM patients continuously infused for ten hours during the night (Example 2); type: in vivo, human; conditions: five NIDDM patients
Procedure: GLP-1 (7-36) amide was administered by a subcutaneous infusion at a dose rate of 1.2 pmol/kg/hr, for ten hours during the night, to five patients having non-insulin dependent diabetes (NIDDM). […] The rate of insulin infusion was adjusted every two hours to achieve optimum control, and to avoid hypoglycemia.

[2] = Blood glucose in NIDDM patients infused for three hours at each meal during the day (Example 3); type: in vivo, human; conditions: five NIDDM patients
From the text: During the day, GLP-1 (7-36) amide was infused into five NIDDM patients for three hours during breakfast, lunch, and dinner.

[3] = overnight glucose infusion 5 mg/kg/min before elective abdominal surgery (Ljungqvist 1994); cited from earlier work
[4] = Glucose infusion rate (GIR) in hyperinsulinemic, normoglycemic clamp, preop vs postop, elective surgery patients; type: in vivo, human
Procedure: (§1) After one hour at steady state conditions, all patients underwent a standardized surgical treatment (hipartroplasty). […] The hyperinsulinemic, normoglycemic clamp was then maintained during surgery and continued for a further 3-4 hours after surgery. The data will be presented according to the following nomenclature:
(§2) The control group received no basal or preop clamp on the day of surgery.
(§3) All values are individual values, or mean+SEM (standard error of the mean). Statistical significance is accepted at p<0.05 using Wilcoxon's signed rank test and the Mann-Whitney U-test for paired and unpaired data respectively.

[5] = Hormone levels (RIA) in patients undergoing hipartroplasty with hyperinsulinemic, normoglycemic clamp before and during surgery; type: in vivo, human; design: Glucagon / Cortisol: unit not given here
Procedure: as §1, §2
Blood samples were collected from a heated hand vein repeatedly during the basal, preop, early op, late op and postop periods. Blood glucose was measured immediately upon collection using the glucose oxidase method (Yellow Springs Instruments, Yellow Springs, Ohio) [Hugget, A. S., et al., Lancet 2:368-70 (1957)]. […] Methods of hormone radioimmunoassay, Academic Press, New York and London (1979) pp. 643-56]; and glucagon (Euro-Diagnostica AB, Malm6, Sweden) [Faloona, G. R., et al., Glucagpn radioimmunoassay technique. 5 Vol. 1: Academic Press, New York (1974)].
as §3

[6] = Indirect calorimetry: substrate oxidation rates and energy expenditure during and after surgery; type: in vivo, human
Procedure: Indirect calorimetry (Deltatrac® Dansjoo, Sweden) [Frayn, K. N. J. Appl. Physiol. 55(2):628-34 (1983); Takala, J., et al., Crit. Care Med. 17(10): 1041-47 (1989)] was performed for 30 minutes during the basal phase, twice during surgery (early op and late op), and during the last 30 minutes of the preop and postop clamps. Timed sampling of urine for analysis of urinary urea excretion was performed. After correction for changes in urea pool size [Tappy, L, et al., Diabetes 37:1212-16 (1988)], non-protein energy expenditure (EE), respiratory quotients (RQ) and substrate oxidation rates were calculated.

[7] = Hour 21:00, continuous infusion for ten hours during the night (GLP-1 (7-36) amide sc 1.2 pmol/kg/hr; insulin rate adjusted every two hours)
[8] = Hour 7:00, GLP-1 (7-36) amide infused three hours from start of each meal, insulin sc injection just before each meal
[9] = insulin group vs control, p<0.05
[10] = basal, 30 min before start of insulin infusion, insulin group n=7, mean ± SEM
[11] = early op, insulin 0.8 mU/kg/min iv, n=7
[12] = late op, insulin 0.8 mU/kg/min iv, n=7
[13] = postop clamp, insulin 0.8 mU/kg/min iv, n=7
[14] = preop clamp, insulin 0.8 mU/kg/min iv, n=7

With `CC[C@H](C)[C@H](NC(=O)[C@H](Cc1ccccc1)NC(=O)[C@H](CCC(=O)O)NC(=O)[C@H](CCCCN)NC(=O)[C@H](C)NC(=O)[C@H](C)NC(=O)[C@H](CCC(N)=O)NC(=O)CNC(=O)[C@H](CCC(=O)O)NC(=O)[C@H](CC(C)C)NC(=O)[C@H](Cc1ccc(O)cc1)NC(=O)[C@H](CO)NC(=O)[C@H](CO)NC(=O)[C@@H](NC(=O)[C@H](CC(=O)O)NC(=O)[C@H](CO)NC(=O)[C@@H](NC(=O)[C@H](Cc1ccccc1)NC(=O)[C@@H](NC(=O)CNC(=O)[C@H](CCC(=O)O)NC(=O)[C@H](C)NC(=O)[C@@H](N)Cc1c[nH]cn1)[C@@H](C)O)[C@@H](C)O)C(C)C)C(=O)N[C@@H](C)C(=O)N[C@@H](Cc1c[nH]c2ccccc12)C(=O)N[C@@H](CC(C)C)C(=O)N[C@H](C(=O)N[C@@H](CCCCN)C(=O)NCC(=O)N[C@@H](CCCNC(=N)N)C(N)=O)C(C)C` [GLP-1 (7-36) amide, GLP-1(7-36) amide] the “Average Blood Glucose” value ([1]; Hour 0:00, night infusion) was 4.4 mM, the “Average Blood Glucose” value ([1]; Hour 1:00, night infusion) was 4.4 mM and the “Average Blood Glucose” value ([1]; Hour 2:00, night infusion) was 4.8 mM. For the same compound, the “Average Blood Glucose” value ([1]; Hour 3:00, night infusion) was 5.2 mM, the “Average Blood Glucose” value ([1]; Hour 4:00, night infusion) was 5.4 mM and the “Average Blood Glucose” value ([1]; Hour 5:00, night infusion) was 5.8 mM. For the same compound, the “Average Blood Glucose” value ([1]; Hour 6:00, night infusion) was 6.0 mM, the “Average Blood Glucose” value ([1]; Hour 7:00, night infusion) was 6.2 mM and the “Average Blood Glucose” value [1, 7] was 7.5 mM. The “Average Blood Glucose” value ([1]; Hour 22:00, night infusion) was 5.4 mM, the “Average Blood Glucose” value ([1]; Hour 23:00, night infusion) was 4.1 mM and the “Metabolic control compared with insulin” value ([1]; night infusion) was “better than that achieved by insulin”. For the same compound, the “Effect on blood glucose” value ([1]; subcutaneous infusion 1.2 pmol/kg/hr, ten hours during the night) was “nearly normalized blood glucose”, the “Average Blood Glucose” value [2, 8] was 5.4 mM and the “Average Blood Glucose” value ([2]; Hour 8:00, meal-time dosing) was 4.9 mM. For the same compound, the “Average Blood Glucose” value ([2]; Hour 9:00, meal-time dosing) was 5.7 mM, the “Average Blood Glucose” value ([2]; Hour 10:00, meal-time dosing) was 5.8 mM and the “Average Blood Glucose” value ([2]; Hour 11:00, meal-time dosing) was 8.1 mM. For the same compound, the “Average Blood Glucose” value ([2]; Hour 12:00, meal-time dosing) was 9.4 mM, the “Average Blood Glucose” value ([2]; Hour 13:00, meal-time dosing) was 7.2 mM and the “Average Blood Glucose” value ([2]; Hour 14:00, meal-time dosing) was 5.3 mM. The “Average Blood Glucose” value ([2]; Hour 15:00, meal-time dosing) was 7.2 mM, the “Average Blood Glucose” value ([2]; Hour 16:00, meal-time dosing) was 10.4 mM and the “Average Blood Glucose” value ([2]; Hour 17:00, meal-time dosing) was 9.2 mM. For the same compound, the “Average Blood Glucose” value ([2]; Hour 18:00, meal-time dosing) was 5.7 mM, the “Average Blood Glucose” value ([2]; Hour 19:00, meal-time dosing) was 6.6 mM and the “Average Blood Glucose” value ([2]; Hour 20:00, meal-time dosing) was 8.3 mM. The “Average Blood Glucose” value ([2]; Hour 21:00, meal-time dosing) was 9.3 mM, the “Blood glucose level immediately after terminating each infusion” value [2] was “increased significantly” and the “Post-prandial glucose excursions observed with insulin injection” value ([2]; while GLP-1 was infused) was “eliminated”.
For `O=C[C@H](O)[C@@H](O)[C@H](O)[C@H](O)CO` [glucose], the “Average loss of insulin sensitivity after the operation” value [3] is listed as 32%.
For “insulin: insulin (Actrapid®, Novo, Copenhagen) in Example 1; insulin comparator in Examples 2 and 3”, the “Catabolic changes after surgery” value ([4]; elevated insulin levels before and maintained throughout the operation) was “completely abolished”, the “Change in average GIR in the postop clamp compared to the preop clamp” value ([4]; insulin group n=7, p=0.2) was “+16±20%” and the “Average GIR during the postop clamp compared to the control group” value [4, 9] was “significantly higher”. The “Average Blood Glucose” value ([1]; Hour 0:00, night infusion) was 5.6 mM, the “Average Blood Glucose” value ([1]; Hour 1:00, night infusion) was 5.1 mM and the “Average Blood Glucose” value ([1]; Hour 2:00, night infusion) was 5.2 mM. The “Average Blood Glucose” value ([1]; Hour 3:00, night infusion) was 5.4 mM, the “Average Blood Glucose” value ([1]; Hour 4:00, night infusion) was 5.7 mM and the “Average Blood Glucose” value ([1]; Hour 5:00, night infusion) was 6.0 mM. For the same compound, the “Average Blood Glucose” value ([1]; Hour 6:00, night infusion) was 6.1 mM, the “Average Blood Glucose” value ([1]; Hour 7:00, night infusion) was 6.1 mM and the “Average Blood Glucose” value [1, 7] was 6.9 mM. For the same compound, the “Average Blood Glucose” value ([1]; Hour 22:00, night infusion) was 6.6 mM, the “Average Blood Glucose” value ([1]; Hour 23:00, night infusion) was 5.9 mM and the C-peptide [5, 10] was “.68 ± .09”. For the same compound, the Cortisol [5, 10] was 171 ± 41, the Glucagon [5, 10] was 58 ± 7 and the C-peptide ([5]; early op (10 to 40 min after initiation of surgery), insulin 0.8 mU/kg/min iv, n=7) was “.42 ±.06”. The Cortisol [5, 11] was 234 ± 46, the Glucagon [5, 11] was 40 ± 3 and the “C-peptide levels during surgery compared to the control group” value ([5]; insulin group vs fasted control) was “lower”. For the same compound, the Serum insulin levels ([5]; insulin group, during surgery and the postop clamp, 0.8 mU/kg/min iv) was “around 60 μU/ml”, the “Serum cortisol levels after surgery” value ([5]; insulin group, vs preop) was “decreased” and the “Serum glucagon levels after surgery” value ([5]; insulin group, vs preop, p<0.05) was “decreased”. For the same compound, the C-peptide ([5]; late op (last 30 min of surgery), insulin 0.8 mU/kg/min iv, n=7) was “.58 ± .12”, the Cortisol [5, 12] was 212 ± 44 and the Glucagon [5, 12] was 35 ± 4. For the same compound, the C-peptide [5, 13] was “.52 ± .11”, the Cortisol [5, 13] was 172 ± 83 and the Glucagon [5, 13] was 33 ± 4. For the same compound, the Cortisol [5, 14] was 266 ± 35, the Glucagon [5, 14] was 52 ± 3 and the C-peptide ([5]; preop clamp, insulin 0.8 mU/kg/min iv, n=7, mean ± SEM) was “.45 ± .05”. For the same compound, the “Average Blood Glucose” value [2, 8] was 6.1 mM, the “Average Blood Glucose” value ([2]; Hour 8:00, meal-time dosing) was 7.0 mM and the “Average Blood Glucose” value ([2]; Hour 9:00, meal-time dosing) was 9.1 mM. The “Average Blood Glucose” value ([2]; Hour 10:00, meal-time dosing) was 9.9 mM, the “Average Blood Glucose” value ([2]; Hour 11:00, meal-time dosing) was 8.2 mM and the “Average Blood Glucose” value ([2]; Hour 12:00, meal-time dosing) was 6.5 mM. The “Average Blood Glucose” value ([2]; Hour 13:00, meal-time dosing) was 9.1 mM, the “Average Blood Glucose” value ([2]; Hour 14:00, meal-time dosing) was 8.1 mM and the “Average Blood Glucose” value ([2]; Hour 15:00, meal-time dosing) was 7.0 mM. The “Average Blood Glucose” value ([2]; Hour 16:00, meal-time dosing) was 7.2 mM, the “Average Blood Glucose” value ([2]; Hour 17:00, meal-time dosing) was 6.5 mM and the “Average Blood Glucose” value ([2]; Hour 18:00, meal-time dosing) was 7.3 mM. For the same compound, the “Average Blood Glucose” value ([2]; Hour 19:00, meal-time dosing) was 6.1 mM, the “Average Blood Glucose” value ([2]; Hour 20:00, meal-time dosing) was 6.0 mM and the “Average Blood Glucose” value ([2]; Hour 21:00, meal-time dosing) was 6.4 mM. The “Substrate oxidation rates at the postop clamp as compared to the preop clamp” value ([6]; insulin group) was “no change”, the “Resting energy expenditure (EE) during or after surgery, between groups” value ([6]; insulin group vs control) was “did not differ” and the “Fat oxidation rates during surgery” value [6, 9] was “significantly lower”. The “Glucose oxidation rates during surgery” value [6, 9] was “significantly higher”.
